Source: patent US7214696B2, “Compositions and methods for stabilizing transthyretin and inhibiting transthyretin misfolding” (The Scripps Research Institute, priority 2002, dated 2007)
Where two headings read alike, the source gives them in different places. Blank lines part the entries; values can stand above or below the molecule they belong to.

Key:
TTR in human serum = TTR in human serum (Homo sapiens, UniProt P02766); conditions: diflunisal 100 μM in serum
Experimental: A 1:1 gel/10 mM Tris.HCl, pH 8.0/140 mM NaCl/0.025% NaN3(TSA) slurry (62.5 μL) of Sepharose was added to 500 μL of serum and incubated at 4° C. for 1 h. Following centrifugation, 400 μL of supernatant was added to 200 μL of a 1:1 gel/TSA slurry of the anti-TTR antibody-conjugated Sepharose and slowly rocked at 4° C. for 20 min. After centrifugation, the gel was washed with 1 mL of TSA/0.05% saponin (Fisher Scientific) (twice, 10 min each), and additionally with 1 mL of TSA (once, 10 min) at 4° C. […] After gentle rocking at 4° C. for 30 min, the sample was centrifuged and 145 μL of the supernatant was removed.

[1] = cited from earlier work
WT TTR [2] = molecular target: T1, WT TTR (Homo sapiens, UniProt P02766); assay: Stagnant acid-mediated fibril formation assay (turbidity, pH 4.4, 72 h), Example 2; conditions: 3.6 TM TTR, 37° C.
Experimental: Each compound was subjected to a stagnant fibril formation assay. […] The mixture was vortexed and incubated for 30 min (25° C.), at which time the pH was lowered to 4.4 with 500 TL of 200 mM acetate, 100 mM KCl and 1 mM EDTA (pH 4.2). The final 1 mL solution was vortexed and incubated for 72 h at 37° C. without agitation. After 72 h, the cuvettes were vortexed to suspend any fibrils present, and the turbidity of the suspension was measured at 350 and 400 nm using a UV-vis spectrometer. […] All assays were performed in triplicate and all compounds were assayed using wild-type TTR.
After incubation of each mixture for 72 h (37° C.), the turbidity was measured at 350 and 400 nm using a UV-vis spectrometer. All amyloid fibril formation data was normalized to WT TTR amyloidogenesis in the absence of inhibitor, assigned to be 100% fibril formation.

V30M TTR = molecular target: T2, V30M TTR (Homo sapiens, UniProt P02766, V50M); assay: Acid-mediated amyloidogenesis of TTR variant V30M, Example 3; assay type: biochemical
T2 construct: made in house; host or cells: Escherichia coli BL21/DE3 Epicurian gold, pmmHα plasmid
Experimental: (§1) Recombinant WT TTR and variants were expressed in BL21/DE3 Epicurian gold Escherichia coli (Stratagene) transformed with the pmmHα plasmid containing the TTR and ampicillin-resistance genes. Expression and purification were performed as described previously (Lashuel et al., Biochemistry 1999; 38: 13560–73).
(§2) Fibril formation assay was carried out as follows. A recombinant TTR stock solution (7.2 μM) was diluted 1:1 with 100 mM acidification buffer. Citrate buffer was used when a final pH of ≦3.8 was desired; acetate buffer was employed when the pH range under evaluation was 4.2–6.0, and phosphate buffer was utilized for evaluating amyloidogenesis at pH 6.5. Samples were incubated at 37° C. for 72 h without stirring after acidification. The extent of fibril formation was probed by turbidity measurements at […].
(§3) More than 80 TTR mutations predispose individuals to hereditary amyloidosis by sequence dependent alterations of the denaturation energy landscape.

[3] = Serum chemistry and side effects in healthy volunteers given diflunisal, Example 3; assay type: in vivo, human
Excerpt: (§4) Thirty healthy volunteers (25 male, 5 female) were enrolled after informed consent was given. The subjects ranged from 23 to 53 years of age (mean age, 37.6±8.8) with a mean body weight of 78.0±12.1 kg. […] This study design was approved by the Human Subjects Committee of Scripps Clinic, Scripps Green Hospital, The Scripps Research Institute, and The Scripps General Clinical Research Center.

serum TTR = molecular target: T3, serum TTR (Homo sapiens, UniProt P02766); assay: Serum TTR tetramer stability against urea or acid denaturation (glutaraldehyde cross-linking, immunoblot), Example 3; assay type: in vivo; conditions: whole serum of dosed subjects, urea (0–9 M) or acid (pH 3.8–5.4)
T3 construct: from tissue; host or cells: serum of healthy human volunteers dosed orally with diflunisal
Experimental: Serum TTR tetramer stability towards urea denaturation was evaluated. Ten μL samples of serum were incubated (25° C.) in 90 μL of various concentrations of urea in 50 mM phosphate buffer (pH 7.0; 100 mM KCl, 1 mM EDTA, 1 mM DTT). Urea solutions were checked by refractive index to verify the concentrations prepared by weight. Glutaraldehyde cross-linking of the protein was performed by adding 10 μL of glutaraldehyde (25%). The cross-linking reaction was allowed to proceed for 4 min before it was quenched by the addition of 10 μL of NaBH4 (7% in 0.1 M NaOH). The samples were mixed with 120 μL of SDS reducing gel loading cocktail (final SDS concentration=2.5%) and boiled for 5 min.
Serum TTR tetramer stability against acid denaturation was evaluated. Ten μL samples of serum were incubated (37° C.) in 90 μL of 100 mM acidification buffer. Citrate buffer was used when a final pH of ≦3.8 was desired; acetate buffer was employed when the pH range under evaluation was 4.2–5.4. After cross-linking, samples were analyzed by SDS-PAGE and immunoblotting as described above.
Whole serum from the subjects was subjected to denaturation either by adding urea (0–9 M) or by adding acid (pH 3.8–5.4). […] Immunoblotting enables quantitative comparisons of the amount of folded TTR.

[4] = Serum diflunisal levels in healthy volunteers (HPLC), Example 3; assay type: in vivo; conditions: both sexes, human, oral
Experimental: as §4
Serum diflunisal levels were measured. One hundred μL of serum was added to 900 μL of acetonitrile to precipitate the proteins. Following centrifugation, 100 μL of supernatant was added to 900 μL of 100 mM aqueous triethylamine, pH 11.5. After filtration, 100 μL of each sample was injected on a Keystone 3-cm C18 reverse-phase column using a 40–100% gradient of solution B over 10 min (solution A: 94.8% water/5% acetonitrile/0.2% trifluoroacetic acid; solution B: 94.8% acetonitrile/5% water/0.2% trifluoroacetic acid), controlled by a Waters 600E multisolvent delivery system.

TTR [5] = molecular target: T4, TTR (Homo sapiens, UniProt P02766); assay: Rate of urea-mediated (6.5 M) TTR tetramer dissociation by CD, Example 3; assay type: biochemical; design: made in house; host or cells: Escherichia coli BL21/DE3 Epicurian gold, pmmHα plasmid; conditions: 6.5 M urea; diflunisal 5, 10, 20 and 60 μM
Experimental: Rate of TTR tetramer dissociation was measured by circular dichroism spectroscopy. The evaluation of tetramer dissociation rates was carried out using recombinant TTR (3.6 μM) samples in 6.5 M urea, a concentration in the post-transition region for tertiary structural change (Hammarstrom et al., Proc Natl Acad Sci USA 2002; 99: 16427–32). The far-UV CD spectra of TTR (210–220 nm) as a function of time was measured to evaluate the slow tetramer dissociation rate by linking it to fast tertiary structural changes.

TTR [6] = molecular target: T4, TTR; assay: Rate of acid-mediated (pH 4.4) amyloid fibril formation, Example 3; assay type: biochemical; design: made in house; host or cells: Escherichia coli BL21/DE3 Epicurian gold, pmmHα plasmid; conditions: diflunisal 5, 10, 20 and 60 μM
Experimental: as §2

V122I TTR = molecular target: T5, V122I TTR (Homo sapiens, UniProt P02766, V142I); assay: Acid-mediated amyloidogenesis of TTR variant V122I, Example 3; assay type: biochemical
T5 construct: made in house; host or cells: Escherichia coli BL21/DE3 Epicurian gold, pmmHα plasmid
Experimental: as §1, §2, §3

[7] = molecular target: T6, TTR in human blood plasma (Homo sapiens, UniProt P02766); assay: Immunoprecipitation/HPLC binding stoichiometry of PCBs and OH-PCBs in plasma, Example 4; design: from tissue; host or cells: human blood plasma from healthy volunteers; conditions: OH-PCB 10.8 μM in human blood plasma; post-wash lower limit
Experimental: After washing, the PCB or OH-PCB binding stoichiometry to TTR (≈5 μM) was evaluated by reverse phase HPLC.
A 2 mL eppendorf tube was filled with 1.5 mL of human blood plasma and 7.5 μL of a 2.16 mM DMSO solution of the PCB under evaluation. This solution was incubated at 37° C. for 24 h. A 1:1 resin/TSA slurry (187 μL) of quenched Sepharose was added to the solution and gently rocked at 4° C. for 1 h. The solution was centrifuged (16,000×g) and the supernatant divided into 3 aliquots of 400 μL each. These were each added to 200 μL of a 1:1 resin/TSA slurry of the anti-transthyretin antibody-conjugated Sepharose and slowly rocked at 4° C. for 20 min. The samples were centrifuged (16,000×g) and the supernatant removed. The resin was washed with 1 mL TSA/0.05% Saponin (Acros) (3×10 min) at 4° C., and additionally with 1 mL TSA (2×10 min) at 4° C. […]
The supernatant elution samples from the TTR antibody beads (145 μL) were loaded onto a Waters 71P autosampler. […] Detection was accomplished at 280 nm with a Waters 486 tunable absorbance detector, and the peaks were integrated to give the area of both TTR and the small molecule. In order to determine the quantity of each species, known amounts of tetrameric TTR or PCB were injected onto the HPLC. […] The ratio of small molecule to protein was calculated to yield the stoichiometry of small molecule bound to TTR in plasma.

TTR in whole blood = molecular target: T7, TTR in whole blood (Homo sapiens, UniProt P02766); assay: Binding stoichiometry of OH-PCBs in whole blood, Example 4
T7 construct: Whole blood was drawn from healthy volunteers; from tissue; host or cells: human whole blood from healthy volunteers
Excerpt: Up to two PCBs can bind to the two identical thyroid hormone binding sites in a TTR tetramer. […] Several of the hydroxylated PCBs (e.g., 16 and 22) approach a binding stoichiometry of 2.

[8] = molecular target: wt transthyretin tetramer (Homo sapiens, UniProt P02766); assay: TTR tetramer dissociation in 6 M urea, Example 5; conditions: TTR 1.8 μM, inhibitor 3.6 μM
WT TTR [9] = molecular target: T1, WT TTR; assay: Transthyretin amyloid fibril formation assay (pH 4.4, 72 h, OD 400 nm), Example 4; assay type: biochemical; conditions: equimolar inhibitor and TTR concentration (3.6 μM)
Experimental: TTR secreted into blood from the liver appears to be the source of systemic TTR amyloid. While it is not yet clear where or how amyloid is formed in humans, the typical denaturant in cells is acid, which is effective in converting nearly all amyloidogenic peptides and proteins into amyloid and/or related aggregates. […] Hydroxylated PCBs and PCB 3 were highly efficacious as TTR fibril inhibitors. At an inhibitor concentration equal to the WT TTR concentration (3.6 μM), only 12–50% of the normal amount of fibril formation was observed after a 72 h incubation period.
The compounds were dissolved in DMSO at a concentration of 720 μM. Five μL of a solution of the compound being evaluated was added to 0.5 mL of a 7.2 μM TTR solution in 10 mM phosphate pH 7.6, 100 mM KCl, 1 mM EDTA buffer, allowing the compound to incubate with TTR for 30 min. 495 μL of […] acetate pH 4.2, 100 mM KCl, 1 mM EDTA was added, to yield final protein and inhibitor concentrations of 3.6 μM each and a pH of 4.4. The mixture was then incubated at 37° C. for 72 h, after which the tubes were vortexed for 3 sec and the optical density was measured at 400 nm. The extent of fibril formation was determined by normalizing each optical density by that of TTR without inhibitor, defined to be 100% fibril formation. Control solutions of each compound in the absence of TTR were also tested and none absorbed appreciably at 400 nm.

[10] = molecular target: T6, TTR in human blood plasma; assay type: binding; design: from tissue; host or cells: human blood plasma from healthy volunteers; conditions: test compound 10.8 μM, 24 h, 37° C.
Experimental: Human blood plasma (TTR conc. 3.6–5.4 μM) was incubated for 24 h with the test compound (10.8 μM) at 37° C. The TTR and any bound inhibitor were immunoprecipitated using a sepharose-bound polyclonal TTR antibody. The TTR with or without inhibitor bound was liberated from the resin at high pH, and the inhibitor:TTR stoichiometry was ascertained by HPLC analysis (FIG. 8).

TTR tetramer = TTR tetramer (Homo sapiens, UniProt P02766); assay: Tetramer dissociation in 6 M urea, Example 4; assay type: biochemical
Excerpt: In addition to their high binding selectivity to plasma TTR, the OH-PCBs and PCB 3 also display excellent inhibition of TTR fibril formation in vitro. […] This is likely attributable to their high binding affinity (also consistent with their low off rate) and their non- or positively cooperative TTR binding properties which are unusual. […] Ground state stabilization raises the tetramer dissociation barrier (rate limiting step in TTR amyloidogenesis) substantially, such that the tetramer cannot dissociate on a biologically relevant timescale. […] OH-PCB 18 (3.6 μM) is believed to be an impressive amyloid inhibitor because it is an excellent kinetic stabilizer of tetrameric TTR, i.e. it prevents ⅔ of a 3.6 μM TTR sample from being amyloidogenic at pH 4.4 because TTR•18 and TTR•182 are incompetent to form amyloid, the remainder of TTR (1.18 μM) forms amyloid very inefficiently because of its low concentration. The dissociation rates of the best OH-PCB inhibitors may also be slower than expected because of TTR structural annealing around the OH-PCB, but this has not yet been evaluated as carefully as required.

binding stoichiometry in subjects (TTR in human serum): 0.8–1
reduction of TTR amyloidogenesis (WT TTR [2]; 3.6 TM diflunisal): 63%
reduction of TTR amyloidogenesis (WT TTR [2]; 7.2 TM diflunisal): 97%
concentration at 4 h after the 13th dose (day 8) ([4]; 125 mg twice a day, 125 mg bid): 20.1 ± 7.1 µM
concentration at 12 h after the 13th dose (day 8) ([4]; 125 mg twice a day, 125 mg bid): 6.9 ± 3 µM
concentration at 4 h after the 13th dose (day 8) ([4]; 250 mg twice a day, 250 mg bid): 234 ± 76 µM
concentration at 12 h after the 13th dose (day 8) ([4]; 250 mg twice a day, 250 mg bid): 146 ± 38.9 µM
concentration at 4 h after the 13th dose (day 8) ([4]; 500 mg twice a day, 500 mg bid): 517 ± 79.5 µM
concentration at 12 h after the 13th dose (day 8) ([4]; 500 mg twice a day, 500 mg bid): 422 ± 78.1 µM
rate of urea-mediated dissociation (TTR [5]): dose dependent slowing
rate of acid mediated amyloid fibril formation (TTR [6]): dose dependent slowing
Molecule: O=C(O)c1cc(-c2ccc(F)cc2F)ccc1O [diflunisal]
diflunisal concentration in blood ([1]; 4 h after a single 500 mg dose): > 300 µM
diflunisal concentration in blood ([1]; 20 h after a single 500 mg dose): exceed 30 μM
blood-brain barrier penetration ([1]; in vivo): cannot cross the blood-brain barrier
half-life ([1]; in vivo): 8 to 10 h
sustained plasma concentration ([1]; orally administered, 250 mg twice daily): exceeding 100 TM
protein bound ([1]; serum): Greater than 99%
inhibition of V30M amyloidogenesis (V30M TTR): inhibits both V122I and V30M amyloidogenesis in a dose dependent fashion
level of BUN ([3]; 250 mg bid group): increased slightly
serum level of albumin ([3]; 250 mg bid group): decreased moderately
level of BUN ([3]; 500 mg bid group): increased slightly
level of creatinine ([3]; 500 mg bid group): increased slightly
serum level of albumin ([3]; 500 mg bid group): decreased significantly
side effects ([3]; 125, 250 or 500 mg bid for 7 days, during or after the study): No obvious side effects were observed
stability of serum TTR against denaturation (serum TTR): stabilizes serum TTR against denaturation stresses
inhibition of V122I amyloidogenesis (V122I TTR): inhibits both V122I and V30M amyloidogenesis in a dose dependent fashion

Molecule: O=C(O)c1ccc2nc(-c3ccccc3)oc2c1 [Compound 21]
Equivalents Bound (Plasma) [7]: 1.40 ± 0.22
Equivalents Bound (Blood) (TTR in whole blood): 1.33
effect on dissociation of TTR [8]: did not hinder the dissociation of TTR at all

efficacy as fibril inhibitor (WT TTR [9]): among the highest observed to date
Equivalents Bound (Plasma) [7]: 1.36 ± 0.21
Molecule: 3′,5′-Difluorobiphenyl-4-carboxylic acid [Compound 18]
inhibitor:TTR binding stoichiometry in human blood plasma [10]: displayed the highest binding stoichiometries
tetramer dissociation in 6 M urea (TTR tetramer): dramatically slowed tetramer dissociation in 6 M urea
